Measurements taken from patent US20060040917A1, “Benzoxazepine derivatives as selective estrogen receptor modulators” (priority 2004, published 2006).

Tests used:
[1] = target: T1, human estrogen receptor α (Homo sapiens, UniProt P03372); assay: Estrogen Receptor α Flash Plate Assay; conditions: displacement of radio-labeled estrogen (0.5 nM), FlashPlate, 1 h room temperature; read-out: ERα Binding IC50
T1 construct: purchased Panvera
T1 sequence (P03372 1-595): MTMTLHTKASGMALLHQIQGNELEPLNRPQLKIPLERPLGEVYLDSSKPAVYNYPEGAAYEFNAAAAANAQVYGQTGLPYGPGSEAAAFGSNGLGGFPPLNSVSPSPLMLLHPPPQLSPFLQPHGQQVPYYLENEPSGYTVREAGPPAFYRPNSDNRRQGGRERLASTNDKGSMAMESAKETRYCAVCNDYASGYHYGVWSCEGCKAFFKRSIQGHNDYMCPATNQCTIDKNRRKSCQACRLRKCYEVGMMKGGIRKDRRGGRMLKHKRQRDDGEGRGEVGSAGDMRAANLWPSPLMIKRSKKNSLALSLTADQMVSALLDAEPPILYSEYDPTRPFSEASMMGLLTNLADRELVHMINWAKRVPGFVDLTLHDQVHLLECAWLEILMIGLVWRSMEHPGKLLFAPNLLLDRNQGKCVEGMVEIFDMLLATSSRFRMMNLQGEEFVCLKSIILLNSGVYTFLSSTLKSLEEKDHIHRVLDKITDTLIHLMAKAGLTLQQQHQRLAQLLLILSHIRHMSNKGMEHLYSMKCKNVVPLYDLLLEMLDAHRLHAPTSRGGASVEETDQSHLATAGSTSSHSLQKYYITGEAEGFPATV
Description: Estrogen Receptor α Flash Plate Assay
This assay monitors binding of radio-labeled estrogen to the estrogen receptor. It is performed on a BioMek 2000 (Beckman). Plates are read in a scintillation counter (Packard TopCount), with decreased counts an indication of binding of a compound to the receptor. The assay was run according to the procedure described by Allan, et al., Anal. Biochem. (1999), 275(2), 243-247.
On day one, 100 μL of Estrogen Screening Buffer (ESB, Panvera) containing 5 mM dithiothreitol (DTT, Panvera), 0.5 μg mouse anti-estrogen receptor monoclonal antibody (SRA-1010, Stressgen) and 50 ng purified human estrogen receptor α (Panvera) were added to each well of a 96 well FlashPlate Plus plate crosslinked with goat anti-mouse antibodies (NEN Life Sciences). The plate was sealed and incubated at 4° C. overnight.
On day two, each well was washed three times with 200 μL PBS, pH 7.2, at room temperature. To each well was then added 98 μL radio-labeled estrogen (0.5 nM, which equals 6 nCi for a 120 Ci/mmol batch, Amersham), diluted in ESB and 5 mM dithiothreitol (DTT). To individual wells were then added 2.5 μL test compound diluted in 30% (v/v) dimethyl sulfoxide/50 mM HEPES, pH 7.5. The wells were mixed three times by aspiration, the plate sealed and incubated at room temperature for one hour. The wells were then counted for 1 min in a TopCount scintillation counter (Packard).
(§1) Representative compound of the present invention were tested according to the procedure described above for binding to the Estrogen Receptor a and Estrogen Receptor β, with results as listed in Table 6.

hER-β = target: T2, hER-β (Homo sapiens, UniProt Q92731); assay: Estrogen Receptor β Fluorescence Polarization Assay; conditions: displacement of Fluormone ES2, fluorescence polarization, 1 h room temperature; read-out: ERβ Binding IC50
T2 construct: purchased Panvera
T2 sequence (Q92731 whole entry): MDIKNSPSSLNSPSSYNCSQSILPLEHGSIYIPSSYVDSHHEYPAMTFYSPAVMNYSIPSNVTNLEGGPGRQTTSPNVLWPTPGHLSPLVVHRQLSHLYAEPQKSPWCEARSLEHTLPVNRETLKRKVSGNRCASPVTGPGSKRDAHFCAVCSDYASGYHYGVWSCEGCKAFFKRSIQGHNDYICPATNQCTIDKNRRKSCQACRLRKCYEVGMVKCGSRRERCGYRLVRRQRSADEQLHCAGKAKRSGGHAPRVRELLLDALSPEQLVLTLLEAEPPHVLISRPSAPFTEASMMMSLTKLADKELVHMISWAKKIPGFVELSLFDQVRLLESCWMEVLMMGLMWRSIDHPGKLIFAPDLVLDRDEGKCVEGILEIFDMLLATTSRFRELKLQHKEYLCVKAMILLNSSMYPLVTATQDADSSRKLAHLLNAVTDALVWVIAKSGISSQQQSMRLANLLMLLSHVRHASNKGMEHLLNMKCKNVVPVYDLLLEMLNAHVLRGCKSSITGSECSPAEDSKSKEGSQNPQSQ
Description: Estrogen Receptor β Fluorescence Polarization Assay
This assay monitors binding of a fluorescent analog of estrogen (Fluormone ES2, Panvera) to the estrogen receptor. Plates are read in a fluorometer that can be set to polarization mode. A decrease in […] relative to vehicle control is an indication of binding of a compound to the receptor.
It is crucial to avoid introduction of air bubbles into the reaction in each well of the 96 well plate throughout this procedure. (Bubbles on the surface of the reaction disrupt light flow, affecting the polarization reading.) However, it is also crucial to effectively mix the reaction components upon addition to the well.
On ice, a 2× standard mixture of Assay Buffer (Panvera), 10 nM DTT and 40 nM ES2 was prepared. On ice, a 2× reaction mixture of Assay Buffer (Panvera), and 20 nM hER-β (Panvera) and 40 nM ES2 was also prepared.
Dilutions of test compound were prepared in 30% (v/v) dimethyl sulfoxide/50 mM HEPES, pH 7.5. At this point, the dilutions were 40× the final required concentration.
The standard mixture at 50 μL was then added to each well. The reaction mixture at 48 μL was added to all wells. The compound dilution at 2.5 μL was added to the appropriate wells. The reaction mixtures were mixed using a manual pipette, a roll of aluminum foil adhesive cover was placed on the plate and the plate incubated at room temperature for 1 hour.
Each well on the plate was then read in an LjL Analyst with an excitation wavelength of […] and an emission wavelength of 538.
as §1

| Structure (SMILES) | IC50 [1] [nM] | IC50 (hER-β) [nM] |
| --- | --- | --- |
| COCOc1ccc(C2COc3cc(OCOC)ccc3N(Cc3cccc(OCCN4CCCCC4)c3)C2)cc1 (centres unmarked) [Compound 20, 3-Methoxymethoxy-7-(4-methoxymethoxy-phenyl)-9-[3-(2-piperidin-1-yl-ethoxy)-benzyl]-6,7,8,9-tetrahydro-5-oxa-9-aza-benzocycloheptene] | > 1000 | > 1000 |
| CN(C)CCOc1ccc(C(=O)N2CC(c3cccc(O)c3)COc3cc(O)ccc32)cc1 (centres unmarked) [Compound 9] | 530 | 26000 |
| COCOc1ccc(C2COc3cc(OCOC)ccc3N(Cc3cccc(OCCCl)c3)C2)cc1 (centres unmarked) [Compound 19, 9-[3-(2-Chloro-ethoxy)-benzyl]-3-methoxymethoxy-7-(4-methoxymethoxy-phenyl)-6,7,8,9-tetrahydro-5-oxa-9-aza-benzocycloheptene] | > 1000 | > 1000 |
| Oc1ccc(C2COc3cc(O)ccc3N(Cc3cccc(OCCN4CCOCC4)c3)C2)cc1 (centres unmarked) [Compound 23] | 350 | 870 |
| Oc1ccc(C2COc3cc(O)ccc3N(Cc3cccc(OCCN4CCCCC4)c3)C2)cc1 (centres unmarked) [Compound 22, 7-(4-Hydroxy-phenyl)-9-[3-(2-piperidin-1-yl-ethoxy)-benzyl]-6,7,8,9-tetrahydro-5-oxa-9-aza-benzocyclohepten-3-ol] | 52 | 560 |
| COc1cccc(C2COc3cc(OC)ccc3N(C(=O)c3ccc(OCCN(C)C)cc3)C2)c1 (centres unmarked) [Compound 8] | 2900 | > 100000 |
| CC(C)(C)C(=O)Oc1ccc(C2COc3cc(OC(=O)C(C)(C)C)ccc3N(Cc3cccc(OCCN4CCCCC4)c3)C2)cc1 (centres unmarked) [Compound 26] | > 1000 | > 1000 |
| Oc1ccc(C2COc3cc(O)ccc3N(Cc3cccc(OCCCl)c3)C2)cc1 (centres unmarked) [Compound 18, 9-[3-(2-Chloro-ethoxy)-benzyl]-7-(4-hydroxy-phenyl)-6,7,8,9-tetrahydro-5-oxa-9-aza-benzocyclohepten-3-ol] | 66 | 88 |
| COCOc1ccc(C2COc3cc(OCOC)ccc3N(Cc3cccc(OCCN4CCOCC4)c3)C2)cc1 (centres unmarked) [Compound 21] | > 1000 | > 1000 |
| O=C(c1ccc(OCCCl)cc1)N1CC(c2cccc(O)c2)COc2cc(O)ccc21 (centres unmarked) [Compound 14] | 24 | 1100 |
| CC(=O)Oc1cccc(C2COc3cc(OC(C)=O)ccc3N(Cc3ccc(OCCN4CCCCC4)cc3)C2)c1 (centres unmarked) [Compound 16] | 120 | 670 |

Next, values leading:

| IC50 [1] [nM] | IC50 (hER-β) [nM] | Structure (SMILES) |
| --- | --- | --- |
| 81 | 2600 | O=C(c1cccc(OCCN2CCCCC2)c1)N1CC(c2cccc(O)c2)COc2cc(O)ccc21 (centres unmarked) [Compound 13, [3-Hydroxy-7-(3-hydroxy-phenyl)-7,8-dihydro-6H-5-oxa-9-aza-benzocyclohepten-9-yl]-[3-(2-piperidin-1-yl-ethoxy)-phenyl]-methanone] |
| 100 | 2600 | CC(=O)Oc1cccc(C2COc3cc(OC(C)=O)ccc3N(C(=O)c3ccc(OCCCl)cc3)C2)c1 (centres unmarked) [Compound 15] |
| 430 | 1100 | Oc1ccc(C2COc3cc(O)ccc3N(Cc3ccc(OCCN4CCCCC4)cc3)C2)cc1 (centres unmarked) [Compound 12, 7-(4-Hydroxy-phenyl)-9-[4-(2-piperidin-1-yl-ethoxy)-benzyl]-6,7,8,9-tetrahydro-5-oxa-9-aza-benzocyclohepten-3-ol] |
| 22 | 300 | Oc1cccc(C2COc3cc(O)ccc3N(Cc3cccc(OCCN4CCCCC4)c3)C2)c1 (centres unmarked) [Compound 25] |
| 56 | 92 | Oc1cccc(C2COc3cc(O)ccc3N(Cc3cccc(OCCCl)c3)C2)c1 (centres unmarked) [Compound 24] |
